Assay results as given in US20230085307A1, “PYRIDAZINONE COMPOUND AND HERBICIDE” (NISSAN CHEMICAL CORPORATION, priority 2019, published 2023).

Columns and labels:
barnyard grass [1] = assay: Test Example 3: herbicidal effect by foliage application, Wagner pot (Table 18, symbol H); type: in vivo, barnyard grass (Echinochloa crus-galli); conditions: amount of applied herbicide 320 g/ha
Summary of the method: (§1)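 Plants were sown in alluvial soil held under 0.1–0.5 cm standing water and grown 14 days in a greenhouse at 25–30 °C. An emulsifiable formulation, water-diluted to the set dose, was then sprayed onto the foliage, and effects were scored three weeks later using previously defined criteria.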

Chinese sprangletop = assay: Test Example 3: herbicidal effect by foliage application, Wagner pot (Table 18, symbol D); type: in vivo, chinese sprangletop (Leptochloa chinensis); conditions: amount of applied herbicide 320 g/ha
Summary of the method: as §1

rice flat sedge = assay: Test Example 3: herbicidal effect by foliage application, Wagner pot (Table 18, symbol E); type: in vivo, rice flat sedge (Cyperus iria); conditions: amount of applied herbicide 320 g/ha
Summary of the method: as §1

southern crabgrass [2] = assay: Test Example 4: herbicidal effect by soil treatment (Table 19, symbol F); type: in vivo, southern crabgrass (Digitaria ciliaris); conditions: amount of applied herbicide 320 g/ha
Summary of the method: (§2)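 Scoring uses the grading scale of an earlier test, three weeks post-application. Treatment consists of spraying a diluted emulsion formulation across the surface of sterilized diluvial soil in which seeds are buried near 1.5 cm deep; boxes are kept in a greenhouse between 25° C. and 30° C.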

green foxtail [3] = assay: Test Example 4: herbicidal effect by soil treatment (Table 19, symbol G); type: in vivo, green foxtail (Setaria viridis); conditions: amount of applied herbicide 320 g/ha
Summary of the method: as §2

barnyard grass [4] = assay: Test Example 4: herbicidal effect by soil treatment (Table 19, symbol H); type: in vivo, barnyard grass (Echinochloa crus-galli); conditions: amount of applied herbicide 320 g/ha
Summary of the method: as §2

wild oat [5] = assay: Test Example 4: herbicidal effect by soil treatment (Table 19, symbol I); type: in vivo, wild oat (Avena fatua); conditions: amount of applied herbicide 320 g/ha
Summary of the method: as §2

blackgrass [6] = assay: Test Example 4: herbicidal effect by soil treatment (Table 19, symbol J); type: in vivo, blackgrass (Alopecurus myosuroides); conditions: amount of applied herbicide 320 g/ha
Summary of the method: as §2

Italian ryegrass [7] = assay: Test Example 4: herbicidal effect by soil treatment (Table 19, symbol K); type: in vivo, Italian ryegrass (Lolium multiflorum); conditions: amount of applied herbicide 320 g/ha
Summary of the method: as §2

windgrass [8] = assay: Test Example 4: herbicidal effect by soil treatment (Table 19, symbol L); type: in vivo, windgrass (Apera spica-venti); conditions: amount of applied herbicide 320 g/ha
Summary of the method: as §2

velvetleaf [9] = assay: Test Example 4: herbicidal effect by soil treatment (Table 19, symbol M); type: in vivo, velvetleaf (Abutilon theophrasti); conditions: amount of applied herbicide 320 g/ha
Summary of the method: as §2

redroot pigweed [10] = assay: Test Example 4: herbicidal effect by soil treatment (Table 19, symbol N); type: in vivo, redroot pigweed (Amaranthus retroflexus); conditions: amount of applied herbicide 320 g/ha
Summary of the method: as §2

lambsquarters [11] = assay: Test Example 4: herbicidal effect by soil treatment (Table 19, symbol O); type: in vivo, lambsquarters (Chenopodium album); conditions: amount of applied herbicide 320 g/ha
Summary of the method: as §2

false cleavers = assay: Test Example 4: herbicidal effect by soil treatment (Table 19, symbol Q); type: in vivo, false cleavers (Galium spurium); conditions: amount of applied herbicide 320 g/ha
Summary of the method: as §2

southern crabgrass [12] = assay: Test Example 5: herbicidal effect by foliage application, plastic box (Table 20, symbol F); type: in vivo, southern crabgrass (Digitaria ciliaris); conditions: foliage application, 320 g/ha, evaluated three weeks after application
Summary of the method: (§3)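 Post-emergence foliar test in sterilized diluvial soil. Compound applied as water-diluted emulsion at a predetermined rate to 14-day-old plants; evaluation at three weeks.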

green foxtail [13] = assay: Test Example 5: herbicidal effect by foliage application, plastic box (Table 20, symbol G); type: in vivo, green foxtail (Setaria viridis); conditions: foliage application, 320 g/ha, evaluated three weeks after application
Summary of the method: as §3

barnyard grass [14] = assay: Test Example 5: herbicidal effect by foliage application, plastic box (Table 20, symbol H); type: in vivo, barnyard grass (Echinochloa crus-galli); conditions: foliage application, 320 g/ha, evaluated three weeks after application
Summary of the method: as §3

wild oat [15] = assay: Test Example 5: herbicidal effect by foliage application, plastic box (Table 20, symbol I); type: in vivo, wild oat (Avena fatua); conditions: foliage application, 320 g/ha, evaluated three weeks after application
Summary of the method: as §3

blackgrass [16] = assay: Test Example 5: herbicidal effect by foliage application, plastic box (Table 20, symbol J); type: in vivo, blackgrass (Alopecurus myosuroides); conditions: foliage application, 320 g/ha, evaluated three weeks after application
Summary of the method: as §3

Italian ryegrass [17] = assay: Test Example 5: herbicidal effect by foliage application, plastic box (Table 20, symbol K); type: in vivo, Italian ryegrass (Lolium multiflorum); conditions: foliage application, 320 g/ha, evaluated three weeks after application
Summary of the method: as §3

windgrass [18] = assay: Test Example 5: herbicidal effect by foliage application, plastic box (Table 20, symbol L); type: in vivo, windgrass (Apera spica-venti); conditions: foliage application, 320 g/ha, evaluated three weeks after application
Summary of the method: as §3

velvetleaf [19] = assay: Test Example 5: herbicidal effect by foliage application, plastic box (Table 20, symbol M); type: in vivo, velvetleaf (Abutilon theophrasti); conditions: foliage application, 320 g/ha, evaluated three weeks after application
Summary of the method: as §3

redroot pigweed [20] = assay: Test Example 5: herbicidal effect by foliage application, plastic box (Table 20, symbol N); type: in vivo, redroot pigweed (Amaranthus retroflexus); conditions: foliage application, 320 g/ha, evaluated three weeks after application
Summary of the method: as §3

lambsquarters [21] = assay: Test Example 5: herbicidal effect by foliage application, plastic box (Table 20, symbol O); type: in vivo, lambsquarters (Chenopodium album); conditions: foliage application, 320 g/ha, evaluated three weeks after application
Summary of the method: as §3

chickweed = assay: Test Example 5: herbicidal effect by foliage application, plastic box (Table 20, symbol P); type: in vivo, common chickweed (Stellaria media); conditions: foliage application, 320 g/ha, evaluated three weeks after application
Summary of the method: as §3

persian speedwell = assay: Test Example 5: herbicidal effect by foliage application, plastic box (Table 20, symbol R); type: in vivo, Persian speedwell (Veronica persica); conditions: foliage application, 320 g/ha, evaluated three weeks after application
Summary of the method: as §3

COc1ccccc1-c1sc2ccc(C(F)(F)F)cc2c1-c1c(O)c(C)nn(C)c1=O [2-162]
herbicidal effect on H: barnyard grass (barnyard grass [1]): 3 (Herbicidal rate of 40% or more and less than 70%)
herbicidal effect on D: Chinese sprangletop (Chinese sprangletop): 0 (Herbicidal rate of 5% or less (almost no effect))
herbicidal effect on E: rice flat sedge (rice flat sedge): 3 (Herbicidal rate of 40% or more and less than 70%)
F: southern crabgrass, herbicidal effect rating (southern crabgrass [2]): 0 (Herbicidal rate of 5% or less (almost no effect))
G: green foxtail, herbicidal effect rating (green foxtail [3]): 3 (Herbicidal rate of 40% or more and less than 70%)
H: barnyard grass, herbicidal effect rating (barnyard grass [4]): 0 (Herbicidal rate of 5% or less (almost no effect))
I: wild oat, herbicidal effect rating (wild oat [5]): 0 (Herbicidal rate of 5% or less (almost no effect))
J: blackgrass, herbicidal effect rating (blackgrass [6]): 0 (Herbicidal rate of 5% or less (almost no effect))
K: Italian ryegrass, herbicidal effect rating (Italian ryegrass [7]): 0 (Herbicidal rate of 5% or less (almost no effect))
L: windgrass, herbicidal effect rating (windgrass [8]): 0 (Herbicidal rate of 5% or less (almost no effect))
M: velvetleaf, herbicidal effect rating (velvetleaf [9]): 0 (Herbicidal rate of 5% or less (almost no effect))
N: redroot pigweed, herbicidal effect rating (redroot pigweed [10]): 2 (Herbicidal rate of 20% or more and less than 40%)
O: lambsquarters, herbicidal effect rating (lambsquarters [11]): 1 (Herbicidal rate of 5% or more and less than 20%)
Q: false cleavers, herbicidal effect rating (false cleavers): 0 (Herbicidal rate of 5% or less (almost no effect))
herbicidal effect on F: southern crabgrass (criteria 0-5) (southern crabgrass [12]): 0 (Herbicidal rate of 5% or less (almost no effect))
herbicidal effect on G: green foxtail (criteria 0-5) (green foxtail [13]): 0 (Herbicidal rate of 5% or less (almost no effect))
herbicidal effect on H: barnyard grass (criteria 0-5) (barnyard grass [14]): 0 (Herbicidal rate of 5% or less (almost no effect))
herbicidal effect on I: wild oat (criteria 0-5) (wild oat [15]): 0 (Herbicidal rate of 5% or less (almost no effect))
herbicidal effect on J: blackgrass (criteria 0-5) (blackgrass [16]): 0 (Herbicidal rate of 5% or less (almost no effect))
herbicidal effect on K: Italian ryegrass (criteria 0-5) (Italian ryegrass [17]): 0 (Herbicidal rate of 5% or less (almost no effect))
herbicidal effect on L: windgrass (criteria 0-5) (windgrass [18]): 0 (Herbicidal rate of 5% or less (almost no effect))
herbicidal effect on M: velvetleaf (criteria 0-5) (velvetleaf [19]): 2 (Herbicidal rate of 20% or more and less than 40%)
herbicidal effect on N: redroot pigweed (criteria 0-5) (redroot pigweed [20]): 3 (Herbicidal rate of 40% or more and less than 70%)
herbicidal effect on O: lambsquarters (criteria 0-5) (lambsquarters [21]): 0 (Herbicidal rate of 5% or less (almost no effect))
herbicidal effect on P: chickweed (criteria 0-5) (chickweed): 5 (Herbicidal rate of 90% or more (almost completely withered))
herbicidal effect on R: persian speedwell (criteria 0-5) (persian speedwell): 2 (Herbicidal rate of 20% or more and less than 40%)
